Experimental data published in the NIST ThermoML archive (doi:10.1021/je050170x).
± gives the expanded uncertainty stated by the source.

Columns and labels:
[1] = refractive index (Na D-line) (dimensionless); conditions: 101.33 kPa, Liquid, Standard Abbe refractometry
[2] = for surface tension liquid-gas: Wilhelmy-plate method; for mass density / viscosity: 101.33 kPa, Liquid; for viscosity: Capillary tube (Ostwald / Ubbelohde) method

CCCC(=O)OCCC(C)C [3-methylbutyl butanoate]
Conditions	mass density, [2] [kg/m3]	refractive index, [1]	surface tension liquid-gas, [2] [mN/m]	viscosity, [2] [mPa·s]
288.15 K	867.72 ± 0.51	1.41259 ± 0.00034	25.7 ± 0.4	1.317 ± 0.018
298.15 K	858.69 ± 0.52	1.40815 ± 0.00034	24.7 ± 0.4	1.111 ± 0.015
308.15 K	849.62 ± 0.54	1.40374 ± 0.00034	24 ± 0.4	0.952 ± 0.013
318.15 K	840.55 ± 0.55	1.39927 ± 0.00034	23.1 ± 0.4	0.827 ± 0.011
328.15 K	831.47 ± 0.57	1.39506 ± 0.00034	22.4 ± 0.4	0.724 ± 0.01
338.15 K	822.35 ± 0.58	1.39055 ± 0.00034	21.6 ± 0.4	0.641 ± 0.009
348.15 K	813.19 ± 0.6	1.386 ± 0.00034	20.5 ± 0.4	0.573 ± 0.008
358.15 K	803.96 ± 0.62	1.38139 ± 0.00034	19.7 ± 0.4	0.511 ± 0.007

CC(=O)OCCC(C)C [3-methylbutyl ethanoate]
Conditions	mass density, [2] [kg/m3]	refractive index, [1]	surface tension liquid-gas, [2] [mN/m]	viscosity, [2] [mPa·s]
288.15 K	877.72 ± 0.52	1.40288 ± 0.00034	25.4 ± 0.4	0.94 ± 0.013
298.15 K	867.91 ± 0.53	1.39836 ± 0.00034	24.3 ± 0.4	0.804 ± 0.011
308.15 K	858.07 ± 0.55	1.39365 ± 0.00034	23.4 ± 0.4	0.704 ± 0.01
318.15 K	848.17 ± 0.56	1.38895 ± 0.00034	22.4 ± 0.4	0.627 ± 0.009
328.15 K	838.22 ± 0.58	1.38447 ± 0.00034	21.6 ± 0.4	0.559 ± 0.008
338.15 K	828.19 ± 0.59	1.37971 ± 0.00034	20.6 ± 0.4	0.484 ± 0.007
348.15 K	818.07 ± 0.61	1.37487 ± 0.00034	19.6 ± 0.4	0.434 ± 0.006
358.15 K	807.85 ± 0.63	1.36995 ± 0.00034	18.7 ± 0.4	0.39 ± 0.006

CC(=O)OCc1ccccc1 [benzyl ethanoate]
Conditions	mass density, [2] [kg/m3]	refractive index, [1]	surface tension liquid-gas, [2] [mN/m]	viscosity, [2] [mPa·s]
288.15 K	1060.11 ± 0.36	1.50439 ± 0.00032	37.7 ± 0.4	2.53 ± 0.033
298.15 K	1050.75 ± 0.34	1.49982 ± 0.00032	36.4 ± 0.4	2.056 ± 0.027
308.15 K	1041.39 ± 0.33	1.49539 ± 0.00032	35.3 ± 0.4	1.703 ± 0.023
318.15 K	1032.03 ± 0.31	1.49064 ± 0.00032	34.1 ± 0.4	1.432 ± 0.019
328.15 K	1022.67 ± 0.3	1.48623 ± 0.00032	33.2 ± 0.4	1.229 ± 0.016
338.15 K	1013.29 ± 0.28	1.48157 ± 0.00032	32.2 ± 0.4	1.059 ± 0.014
348.15 K	1003.89 ± 0.27	1.47701 ± 0.00032	31.1 ± 0.4	0.941 ± 0.013
358.15 K	994.45 ± 0.27	1.47233 ± 0.00032	30.1 ± 0.4	0.826 ± 0.011

CCC(=O)OCc1ccccc1 [benzyl propanoate]
Conditions	mass density, [2] [kg/m3]	refractive index, [1]	surface tension liquid-gas, [2] [mN/m]	viscosity, [2] [mPa·s]
288.15 K	1036.86 ± 0.39	1.4995 ± 0.00034	36 ± 0.4	2.55 ± 0.034
298.15 K	1027.6 ± 0.38	1.49498 ± 0.00034	34.8 ± 0.4	2.123 ± 0.029
308.15 K	1018.38 ± 0.37	1.49074 ± 0.00034	33.6 ± 0.4	1.787 ± 0.024
318.15 K	1009.15 ± 0.36	1.48611 ± 0.00034	32.4 ± 0.4	1.515 ± 0.02
328.15 K	999.93 ± 0.34	1.48171 ± 0.00034	31.6 ± 0.4	1.294 ± 0.018
338.15 K	990.72 ± 0.35	1.47711 ± 0.00034	30.5 ± 0.4	1.114 ± 0.015
348.15 K	981.49 ± 0.36	1.47252 ± 0.00034	29.5 ± 0.4	0.964 ± 0.013
358.15 K	972.25 ± 0.37	1.46768 ± 0.00034	28.5 ± 0.4	0.84 ± 0.011

CCOC(=O)c1ccccc1O [ethyl 2-hydroxybenzoate]
Conditions	mass density, [2] [kg/m3]	refractive index, [1]	surface tension liquid-gas, [2] [mN/m]	viscosity, [2] [mPa·s]
288.15 K	1134.72 ± 0.49	1.52481 ± 0.00032	37.5 ± 0.4	3.694 ± 0.049
298.15 K	1125 ± 0.48	1.52022 ± 0.00032	36.3 ± 0.4	2.831 ± 0.037
308.15 K	1115.29 ± 0.46	1.51573 ± 0.00032	35.2 ± 0.4	2.253 ± 0.03
318.15 K	1105.6 ± 0.44	1.51116 ± 0.00032	34.4 ± 0.4	1.842 ± 0.024
328.15 K	1095.94 ± 0.42	1.50646 ± 0.00032	33.4 ± 0.4	1.53 ± 0.02
338.15 K	1086.24 ± 0.41	1.50191 ± 0.00032	32 ± 0.4	1.305 ± 0.017
348.15 K	1076.6 ± 0.39	1.49744 ± 0.00032	31 ± 0.4	1.126 ± 0.015
358.15 K	1066.83 ± 0.37	1.49296 ± 0.00032	30.2 ± 0.4	0.984 ± 0.013

CCOC(=O)CC(C)C [ethyl 3-methylbutanoate]
Conditions	mass density, [2] [kg/m3]	refractive index, [1]	surface tension liquid-gas, [2] [mN/m]	viscosity, [2] [mPa·s]
288.15 K	869.66 ± 0.61	1.3988 ± 0.00037	24.4 ± 0.4	0.853 ± 0.012
298.15 K	859.78 ± 0.63	1.39401 ± 0.00037	23.5 ± 0.4	0.739 ± 0.011
308.15 K	849.83 ± 0.64	1.38931 ± 0.00037	22.5 ± 0.4	0.642 ± 0.009
318.15 K	839.81 ± 0.65	1.38458 ± 0.00037	21.6 ± 0.4	0.566 ± 0.008
328.15 K	829.71 ± 0.66	1.37978 ± 0.00037	20.7 ± 0.4	0.504 ± 0.007
338.15 K	819.52 ± 0.68	1.37492 ± 0.00037	19.6 ± 0.4	0.452 ± 0.007
348.15 K	809.2 ± 0.69	1.37002 ± 0.00037	18.7 ± 0.4	0.408 ± 0.006
358.15 K	798.73 ± 0.71	1.36524 ± 0.00037	17.6 ± 0.4	0.367 ± 0.005
